According to patent US20250188092A1, “RIFAMYCIN ANALOGS” (THE REGENTS OF THE UNIVERSITY OF MICHIGAN, priority 2021, published 2025):
Read-outs that look alike come from different tables or passages of the source.

Tested on: non-replicating cultures of M. tuberculosis H37Rv transformed with lux ABCDE
Assay: microbe, parasite or virus in culture
Assay type: cell-based, Mycobacterium tuberculosis
Conditions: for MIC90 / MIC: ≥90% reduction in luminescence, read-out: MIC90 LORA; for MIC90 LORA/MABA: ratio of LORA MIC90 to MABA MIC90
[1] = Mycobacterium tuberculosis, H37RV

| Compound | MIC90 LORA Rel to RMP | MIC90 [µM] | MIC90 [1] [µM] | MIC90 LORA/MABA | MIC [1] [µM] |
| --- | --- | --- | --- | --- | --- |
| CO[C@H]1/C=C/O[C@@]2(C)Oc3c(C)c(O)c4c(=O)c(c5oc6cc(C)cc(N7CCN(C)CC7)c6nc-5c4c3C2=O)NC(=O)/C(C)=C\C=C\[C@H](C)[C@H](O)[C@@H](C)[C@@H](O)[C@@H](C)[C@H](OC(C)=O)[C@@H]1C [Compound 30a, (7S,9E,11S,12R,13S,14R,15R,16R,17S,18S,19E,21Z)-2,15,17-Trihydroxy-11-methoxy-3,7,12,14,16,18,22,30-octamethyl-32-(4-methylpiperazin-1-yl)-6,23,37-trioxo-8,27,38-trioxa-24,34-diazahexacyclo[23.11.1.1^4,7.0^5,36.0^26,35.0^28,33]octatriaconta-1(36)2,4,9,19,21,25,28,30,32,34-undecaen-13-yl acetate] | <0.06 | <0.016 |  |  |  |
| CO[C@H]1/C=C/O[C@@]2(C)Oc3c(C)c(O)c4c(=O)c(c5oc6cc(C)cc(N7CCN(C(=O)c8ccc9occc9c8)CC7)c6nc-5c4c3C2=O)NC(=O)/C(C)=C\C=C\[C@H](C)[C@H](O)[C@@H](C)[C@@H](O)[C@@H](C)[C@H](OC(C)=O)[C@@H]1C [Compound 30h, (7S,9E,11S,12R,13S,14R,15R,16R,17S,18S,19E,21Z)-32-[4-(1-Benzofuran-5-carbonyl)piperazin-1-yl]-2,15,17-trihydroxy-11-methoxy-3,7,12,14,16,18,22,30-octamethyl-6,23,37-trioxo-8,27,38-trioxa-24,34-diazahexacyclo[23.11.1.1^4,7.0^5,36.0^26,35.0^28,33]octatriaconta-1(36)2,4,9,19,21,25,28,30,32,34-undecaen-13-yl acetate] | 0.20 |  | 0.042 | 2.2 |  |
| CO[C@H]1/C=C/O[C@@]2(C)Oc3c(C)c(O)c4c(=O)c(c5oc6cc(N7CCN(C)CC7)cc(OCCCCN7CCN(C(=O)Cn8ccnc8)CC7)c6nc-5c4c3C2=O)NC(=O)/C(C)=C\C=C\[C@H](C)[C@H](O)[C@@H](C)[C@@H](O)[C@@H](C)[C@H](OC(C)=O)[C@@H]1C [Compound 6c, (7S,9E,11S,12R,13S,14R,15R,16R,17S,18S,19E,21Z)-2,15,17-Trihydroxy-32-(4-{4-[2-(1H-imidazol-1-yl)acetyl]piperazin-1-yl}butoxy)-11-methoxy-3,7,12,14,16,18,22-heptamethyl-30-(4-methylpiperazin-1-yl)-6,23,37-trioxo-8,27,38-trioxa-24,34-diazahexacyclo[23.11.1.1^4,7.0^5,36.0^26,35.0^28,33]octatriaconta-1(36)2,4,9,19,21,25,28(33)29,31,34-undecaen-13-yl acetate] | 0.14 |  |  | 0.5 | 0.021 |
| CO[C@H]1/C=C/O[C@@]2(C)Oc3c(C)c(O)c4c(=O)c(c5oc6cc(C=O)cc(N7CCN(CC(C)C)CC7)c6nc-5c4c3C2=O)NC(=O)/C(C)=C\C=C\[C@H](C)[C@H](O)[C@@H](C)[C@@H](O)[C@@H](C)[C@H](OC(C)=O)[C@@H]1C [Compound 30d, (7S,9E,11S,12R,13S,14R,15R,16R,17S,1S,19E,21Z)-30-Formyl-2,15,17-trihydroxy-11-methoxy-3,7,12,14,16,18,22-heptamethyl-32-[4-(2-methylpropyl)piperazin-1-yl]-6,23,37-trioxo-8,27,38-trioxa-24,34-diazahexacyclo[23.11.1.1^4,7.0^5,36.0^26,35.0^28,33]octatriaconta-1(36)2,4,9,19,21,25,28,30,32,34-undecaen-13-yl acetate] | 0.07 | 0.017 |  |  |  |
| CO[C@H]1/C=C/O[C@@]2(C)Oc3c(C)c(O)c4c(=O)c(c5oc6cc(C=Nc7ccc(N8CCOCC8)cc7)cc(N7CCN(C)CC7)c6nc-5c4c3C2=O)NC(=O)/C(C)=C\C=C\[C@H](C)[C@H](O)[C@@H](C)[C@@H](O)[C@@H](C)[C@H](OC(C)=O)[C@@H]1C [Compound 32, (7S,9E,11S,12R,13S,14R,15R,16R,17S,18S,19E,21Z)-2,15,17-trihydroxy-11-methoxy-3,7,12,14,16,18,22-heptamethyl-32-(4-methylpiperazin-1-yl)-30-{N-[4-(morpholin-4-yl)phenyl]carboximidoyl}-6,23,37-trioxo-8,27,38-trioxa-24,34-diazahexacyclo[23.11.1.1^4,7.0^5,36.0^26,35.0^28,33]octatriaconta-1,3,5(36)9,19,21,25,28,30,32,34-undecaen-13-yl acetate] | 0.45 |  | 0.118 | 2.5 |  |
| CO[C@H]1/C=C/O[C@@]2(C)Oc3c(C)c(O)c4c(=O)c(c5oc6cc(N7CCN(CCCO[C@@H]8COc9nc([N+](=O)[O-])cn9C8)CC7)cc(C)c6nc-5c4c3C2=O)NC(=O)/C(C)=C\C=C\[C@H](C)[C@H](O)[C@@H](C)[C@@H](O)[C@@H](C)[C@H](OC(C)=O)[C@@H]1C [Compound 29d, (7S,9E,11S,12R,13S,14R,15R,16R,17S,18S,19E,21Z)-2,15,17-Trihydroxy-11-methoxy-3,7,12,14,16,18,22,32-octamethyl-30-[4-(3-{[(6S)-2-nitro-5H,6H,7H-imidazo[2,1-b][1,3]oxazin-6-yl]oxy}propyl)piperazin-1-yl]-6,23,37-trioxo-8,27,38-trioxa-24,34-diazahexacyclo[23.11.1.1^4,7.0^5,36.0^26,35.0^28,33]octatriaconta-1(36)2,4,9,19,21,25,28,30,32,34-undecaen-13-yl acetate] | 0.20 |  | 0.053 | 1.4 |  |
| CO[C@H]1/C=C/O[C@@]2(C)Oc3c(C)c(O)c4c(=O)c(c5oc6cc(C)cc(N7CCN(CC(C)C)CC7)c6nc-5c4c3C2=O)NC(=O)/C(C)=C\C=C\[C@H](C)[C@H](O)[C@@H](C)[C@@H](O)[C@@H](C)[C@H](OC(C)=O)[C@@H]1C [Compound 30c, (7S,9E,11S,12R,13S,14R,15R,16R,17S,18S,19E,21Z)-2,15,17-Trihydroxy-11-methoxy-3,7,12,14,16,18,22,30-octamethyl-32-[4-(2-methylpropyl)piperazin-1-yl]-6,23,37-trioxo-8,27,38-trioxa-24,34-diazahexacyclo[23.11.1.1^4,7.0^5,36.0^26,35.0^28,33]octatriaconta-1(36)2,4,9,19,21,25,28,30,32,34-undecaen-13-yl acetate] | <0.06 |  | < 0.016 |  |  |
| CO[C@H]1/C=C/O[C@@]2(C)Oc3c(C)c(O)c4c(=O)c(c5oc6cc(N7CCN(CC(C)C)CC7)cc(OCCCCN7CCN(C(=O)Cn8ccnc8)CC7)c6nc-5c4c3C2=O)NC(=O)/C(C)=C\C=C\[C@H](C)[C@H](O)[C@@H](C)[C@@H](O)[C@@H](C)[C@H](OC(C)=O)[C@@H]1C [Compound 6d, (7S,9E,11S,12R,13S,14R,15R,16R,17S,18S,19E,21Z)-2,15,17-Trihydroxy-32-(4-{4-[2-(1H-imidazol-1-yl)acetyl]piperazin-1-yl}butoxy)-11-methoxy-3,7,12,14,16,18,22-heptamethyl-30-[4-(2-methylpropyl)piperazin-1-yl]-6,23,37-trioxo-8,27,38-trioxa-24,34-diazahexacyclo[23.11.1.1^4,7.0^5,36.0^26,35.0^28,33]octatriaconta-1(36)2,4,9,19,21,25,28,30,32,34-undecaen-13-yl acetate] | 0.06 |  |  | 2.4 | 0.058 |
| CO[C@H]1/C=C/O[C@@]2(C)Oc3c(C)c(O)c4c(=O)c(c5oc6cccc(OCCCCN7CCN(C)CC7)c6nc-5c4c3C2=O)NC(=O)/C(C)=C\C=C\[C@H](C)[C@H](O)[C@@H](C)[C@@H](O)[C@@H](C)[C@H](OC(C)=O)[C@@H]1C [Compound 5a, (7S,9E,11S,12R,13S,14R,15R,16R,17S,18S,19E,21Z)-2,15,17-Trihydroxy-11-methoxy-3,7,12,14,16,18,22-heptamethyl-32-[4-(4-methylpiperazin-1-yl)butoxy]-6,23,37-trioxo-8,27,38-trioxa-24,34-diazahexacyclo[23.11.1.1^4,7.0^5,36.0^26,35.0^28,33]octatriaconta-1(36)2,4,9,19,21,25,28(33)29,31,34-undecaen-13-yl acetate] | 0.57 |  |  | 2.0 | 0.186 |
| CO[C@H]1/C=C/O[C@@]2(C)Oc3c(C)c(O)c4c(=O)c(c5oc6cc(N7CCN(CC(C)C)CC7)cc(OCCCCN7CCN(CCn8ccnc8)CC7)c6nc-5c4c3C2=O)NC(=O)/C(C)=C\C=C\[C@H](C)[C@H](O)[C@@H](C)[C@@H](O)[C@@H](C)[C@H](OC(C)=O)[C@@H]1C [Compound 6b, (7S,9E,11S,12R,13S,14R,15R,16R,17S,18S,19E,21Z)-2,15,17-trihydroxy-32-(4-{4-[2-(1H-imidazol-1-yl)ethyl]piperazin-1-yl}butoxy)-11-methoxy-3,7,12,14,16,18,22-heptamethyl-30-[4-(2-methylpropyl)piperazin-1-yl]-6,23,37-trioxo-8,27,38-trioxa-24,34-diazahexacyclo[23.11.1.1^4,7.0^5,36.0^26,35.0^28,33]octatriaconta-1(36)2,4,9,19,21,25,28(33)29,31,34-undecaen-13-yl acetate] | 0.05 |  |  | 2.4 | 0.05 |
| CO[C@H]1/C=C/O[C@@]2(C)Oc3c(C)c(O)c4c(=O)c(c5oc6cc(N7CCN(CC(C)C)CC7)cc(OCCCCN7CCOCC7)c6nc-5c4c3C2=O)NC(=O)/C(C)=C\C=C\[C@H](C)[C@H](O)[C@@H](C)[C@@H](O)[C@@H](C)[C@H](OC(C)=O)[C@@H]1C [Compound 6a, (7S,9E,11S,12R,13S,14R,15R,16R,17S,18S,19E,21Z)-2,15,17-Trihydroxy-11-methoxy-3,7,12,14,16,18,22-heptamethyl-30-[4-(2-methylpropyl)piperazin-1-yl]-32-[4-(morpholin-4-yl)butoxy]-6,23,37-trioxo-8,27,38-trioxa-24,34-diazahexacyclo[23.11.1.1^4,7.0^5,36.0^26,35.0^28,33]octatriaconta-1(36)2,4,9,19,21,25,28(33)29,31,34-undecaen-13-yl acetate] | 0.07 |  |  | 2.0 | 0.186 |
